Assay results published in paper PMC5374710, “Discovery of the first dual GSK3β inhibitor/Nrf2 inducer. A new multitarget therapeutic strategy for Alzheimer’s disease” (Scientific Reports, 2017).

Test system: HO-1
Test: HO-1 expression in AREc32 cells after scramble or GSK3β siRNA (western blot)
Format: cell-based, human
Conditions: 10 μM, 24 h
Protocol: To further evaluate the potential relationship between GSK3β inhibition and the Nrf2 induction properties we used two different approaches. […] Cells were treated with compound 5m at increasing concentrations alone or in presence of Li (10 mM) during 24 h and thereafter, luciferase activity was evaluated. […] Secondly, to corroborate the independence of the Nrf2 induction properties of our derivatives from their GSK3β inhibitory properties, we used GSK3β knock down experimental conditions using siRNA. […] After knockdown of GSK3β, AREc32 cells were incubated with compound 5m (10 μM) during 24 h (Fig. 4B). Subsequently, luciferase activity and HO-1 expression were analyzed. […] Similar results were obtained when HO-1 expression was analyzed (Fig. 4D), compound 5m increased HO-1 expression 3.9 times after scramble treatment and 3.5 times after knockdown of GSK3β showing no statistical differences between both conditions. […]
Figure 4 Nrf2 induction properties are independent of the GSK3β inhibitory activity. […] (D) HO-1 expression induced by compound 5m (10 μM) measured at the same experimental conditions used previously. Values are expressed as mean ± SEM of three independent experiments in duplicate. ^###p < 0.001; ^##p < 0.01; ^#p < 0.05 compared to the correspondent basal conditions. […]

With `Cc1[nH]nc2c1C(c1ccc(Br)cc1)C(C#N)=C(N)O2` (centres unmarked) [Compound 5m, 6-Amino-4-(4-bromophenyl)-3-methyl-2,4-dihydropyrano[2,3-c]pyrazole-5-carbonitrile] the HO-1 expression increase (after knockdown of GSK3β) was 3.5 times and the HO-1 expression increase (after scramble treatment) was 3.9 times.
